# pIC50: −log10 of the molar value.
# Biological target: USP7 (Homo sapiens, UniProt Q93009)
# Assay: Ub-AMC assay (USP7 assay)
# Assay type: biochemical
# Set-up: fused on or other part: His tag from pET28aLIC; removed by thrombin for the catalytic domain, no removal step given for the full length
# Settings: for pIC50: USP7 assay
# Procedure: USP7 and mutants were tested for their activity in Ubiquitin-AMC assay in presence or absence of inhibitors. […] For the same assay USP7 full length WT and Q351 mutant were used at 50 nM. […] The reaction was incubated 30 min at room temperature prior to the addition of 2 uM Ubiquitin-AMC (Boston Biochem) substrate. […] The calculated initial rate values were plotted against inhibitor concentrations to determine IC50s. All the experimental data were plotted using Prism GraphPad. FIG. 2A illustrates the structure guided optimization for the inhibition of USP7.
# ND refers to not disclosed.
# Sequence of USP7 (Q93009 208-560 limits assumed): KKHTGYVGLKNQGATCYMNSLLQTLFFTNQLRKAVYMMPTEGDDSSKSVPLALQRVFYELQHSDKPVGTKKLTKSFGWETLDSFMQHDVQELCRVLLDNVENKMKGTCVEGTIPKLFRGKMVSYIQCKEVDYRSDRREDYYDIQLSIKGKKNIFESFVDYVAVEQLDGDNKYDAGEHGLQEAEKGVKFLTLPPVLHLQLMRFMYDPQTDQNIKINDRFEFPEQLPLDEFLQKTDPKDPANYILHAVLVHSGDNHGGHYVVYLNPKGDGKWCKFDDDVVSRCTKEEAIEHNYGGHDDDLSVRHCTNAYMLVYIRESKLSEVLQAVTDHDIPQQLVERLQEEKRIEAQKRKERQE
Structure (SMILES),pIC50,"fold less active than its enantiomer compound 10 (USP7 inhibition, FIG. 2A) [fold]"
CC(C)C(CC(=O)N1CCC(O)(Cn2cnc3cc(NC(=O)CCN4CCN(C)CC4)ccc3c2=O)CC1)c1ccccc1 (centres unmarked) [Compound 47],> 6.70,
CC(CC(=O)N1CCC(O)(Cn2cnc3cc(NC(=O)CCn4ccnc4)ccc3c2=O)CC1)c1ccccc1 (centres unmarked) [Compound 16],> 6.70,
O=C(NCCCCC(=O)N1CCC(O)(Cn2cnc3cc(Cl)ccc3c2=O)CC1)c1ccc2c(c1)CCCN2C(=O)CCl [Compound 19],5.00 to 6.00,
O=C(C[C@H](O)c1ccccc1)N1CCC(O)(Cn2cnc3cc(Cl)ccc3c2=O)CC1 [Compound 33],< 5.00,
O=C(/C=C/c1ccccc1)N1CCC(O)(Cn2cnc3cc(Cl)ccc3c2=O)CC1 [Compound 26],< 5.00,
CN1CCN(CCC(=O)Nc2ccc3c(=O)n(CC4(O)CCN(C(=O)CC(c5ccccc5)c5ccccc5)CC4)cnc3c2)CC1 [Compound 48],> 6.70,
Nc1ccc2c(c1)NCN(CC1(O)CCN(C(=O)CCc3ccccc3)CC1)C2=O [Compound 58],< 5.00,
O=c1c2ccc(Cl)cc2ncn1CC1(O)CCN(C(=S)NCc2ccccc2)CC1 [Compound 37],< 5.00,
CC(=O)Nc1ccc2c(=O)n(CC3(O)CCN(C(=O)CCc4ccccc4)CC3)cnc2c1 [Compound 64],5.00 to 6.00,
CN1CCN(CCC(=O)Nc2ccc3c(=O)n(CC4(O)CCN(C(=O)C(Cc5ccccc5)c5ccccc5)CC4)cnc3c2)CC1 (centres unmarked) [Compound 49],< 5.00,
N[C@@H](Cc1ccccc1)C(=O)N1CCC(O)(Cn2cnc3cc(Cl)ccc3c2=O)CC1 [Compound 22],< 5.00,
C=CC(=O)N[C@@H](Cc1ccccc1)C(=O)N1CCC(O)(Cn2cnc3cc(Cl)ccc3c2=O)CC1 [Compound 59],< 5.00,
O=C(C1CCc2ccccc2C1)N1CCC(O)(Cn2cnc3cc(Cl)ccc3c2=O)CC1 (centres unmarked) [Compound 25],< 5.00,
O=C(CCc1ccc(F)cc1)N1CCC(O)(Cn2cnc3cc(Cl)ccc3c2=O)C1 (centres unmarked) [Compound 66],< 5.00,
Nc1ccc2c(=O)n(CC3(O)CCN(C(=O)CCc4ccccc4)CC3)cnc2c1 [Compound 57],< 5.00,
"C[C@@H](CC(=O)N1CCC(O)(Cn2cnc3cc(NC(=O)CCN4CCN(C)CC4)ccc3c2=O)CC1)c1ccccc1 [Compound 11, (S)—N-(3-((4-Hydroxy-1-(3-phenylbutanoyl)piperidin-4-yl)methyl)-4-oxo-3,4-dihydroquinazolin-7-yl)-3-(4-methylpiperazin-1-yl)propanamide]",> 6.70,80
CC(=O)Nc1cccc2c(=O)n(CC3(O)CCN(C(=O)C[C@@H](C)c4ccccc4)CC3)cnc12 [Compound 50],5.00 to 6.00,
O=C(CCc1ccccn1)N1CCC(O)(Cn2cnc3cc(Cl)ccc3c2=O)CC1 [Compound 34],< 5.00,
O=C(CCc1ccccc1)N1CCC(Cn2cnc3cc(Cl)ccc3c2=O)CC1 [Compound 60],< 5.00,
O=C(N1CCC(O)(Cn2cnc3cc(Cl)ccc3c2=O)CC1)N(Cc1ccccc1)Cc1ccccc1 [Compound 40],< 5.00,
O=C(CCn1cccc1)N1CCC(O)(Cn2cnc3cc(Cl)ccc3c2=O)CC1 [Compound 51],< 5.00,
CC(C)C(CC(=O)N1CCC(O)(Cn2cnc3cc(NC(=O)CCN4CCN(C)CC4)ccc3c2=O)CC1)c1ccccc1 (centres unmarked) [Compound 13],6.00 to 6.70,

Structure (SMILES),pIC50,"fold less active than its enantiomer compound 10 (USP7 inhibition, FIG. 2A) [fold]"
O=C(CCc1ccc([N+](=O)[O-])cc1)N1CCC(O)(Cn2cnc3cc(Cl)ccc3c2=O)CC1 [Compound 61],< 5.00,
"C[C@H](CC(=O)N1CCC(O)(Cn2cnc3cc(NC(=O)CCN4CCOCC4)ccc3c2=O)CC1)c1ccccc1 [Compound 14, (R)—N-(3-((4-hydroxy-1-(3-phenylbutanoyl)piperidin-4-yl)methyl)-4-oxo-3,4-dihydroquinazolin-7-yl)-3-morpholinopropanamide]",> 6.70,
O=C(COc1ccccc1)N1CCC(O)(Cn2cnc3cc(Cl)ccc3c2=O)CC1 [Compound 31],< 5.00,
O=C(CCc1cccc(Br)c1)N1CCC(O)(Cn2cnc3cc(Cl)ccc3c2=O)CC1 [Compound 24],< 5.00,
CN(Cc1ccccc1)C(=O)N1CCC(O)(Cn2cnc3cc(Cl)ccc3c2=O)CC1 [Compound 38],6.00 to 6.70,
O=C(NCc1ccccc1)N1CCC(O)(Cn2cnc3cc(Cl)ccc3c2=O)CC1 [Compound 36],< 5.00,
O=C(CCC1CCCCC1)N1CCC(O)(Cn2cnc3cc(Cl)ccc3c2=O)CC1 [Compound 55],< 5.00,
"O=C(CCc1ccccc1)N1CCC(O)(Cn2cnc3cc(Cl)ccc3c2=O)C1 (centres unmarked) [Compound 5, 7-chloro-3-((3-hydroxy-1-(3-phenylpropanoyl)pyrrolidin-3-yl)methyl)quinazolin-4(3H)-one]",< 5.00,
O=C(CCc1ccncc1)N1CCC(O)(Cn2cnc3cc(Cl)ccc3c2=O)CC1 [Compound 52],< 5.00,
N[C@H](Cc1ccccc1)C(=O)N1CCC(O)(Cn2cnc3cc(Cl)ccc3c2=O)CC1 [Compound 21],< 5.00,
O=C(CF)N[C@@H](Cc1ccccc1)C(=O)N1CCC(O)(Cn2cnc3cc(Cl)ccc3c2=O)CC1 [Compound 62],< 5.00,
CC(CC(=O)N1CCC(O)(Cn2cnc3cc(NC(=O)CCN4CCN(C)CC4)ccc3c2=O)CC1)c1ccccc1 (centres unmarked) [Compound 12],6.00 to 6.70,
C[C@H](c1ccccc1)N(C)C(=O)N1CCC(O)(Cn2cnc3cc(Cl)ccc3c2=O)CC1 [Compound 41],< 5.00,
C=CCCC(=O)N1CCC(O)(Cn2cnc3cc(Cl)ccc3c2=O)CC1 [Compound 20],< 5.00,
"C[C@H](CC(=O)N1CCC(O)(Cn2cnc3cc(NC(=O)CCN(C)C)ccc3c2=O)CC1)c1ccccc1 [Compound 15, (R)-3-(Dimethylamino)-N-(3-((4-hydroxy-1-(3-phenylbutanoyl)piperidin-4-yl)methyl)-4-oxo-3,4-dihydroquinazolin-7-yl)propanamide]",> 6.70,
O=C(CCc1ccccc1)N1CCC(O)(Cn2cnc3cc([N+](=O)[O-])ccc3c2=O)CC1 [Compound 56],< 5.00,
O=C(CCl)NCCC(=O)N1CCC(O)(Cn2cnc3cc(Cl)ccc3c2=O)CC1 [Compound 44],< 5.00,
O=C(C1CCCN1c1ccccc1)N1CCC(O)(Cn2cnc3cc(Br)ccc3c2=O)CC1 (centres unmarked) [Compound 65],< 5.00,
C=CC(=O)NCCCC(=O)N1CCC(O)(Cn2cnc3cc(Cl)ccc3c2=O)CC1 [Compound 46],< 5.00,
C[C@@H](c1ccccc1)N(C)C(=O)N1CCC(O)(Cn2cnc3cc(Cl)ccc3c2=O)CC1 [Compound 42],< 5.00,
"CC(=O)N1CCC(O)(Cn2cnc3cc(Cl)ccc3c2=O)CC1 [Compound 6, 3-((1-Acetyl-4-hydroxypiperidin-4-yl)methyl)-7-chloroquinazolin-4(3H)-one]",< 5.00,

# Further lines, with some results ahead:
pIC50,Structure (SMILES),"fold less active than its enantiomer compound 10 (USP7 inhibition, FIG. 2A) [fold]"
< 5.00,O=C([C@@H]1C[C@H]1c1ccccc1)N1CCC(O)(Cn2cnc3cc(Cl)ccc3c2=O)CC1 [Compound 74],
< 5.00,O=c1c2ccc(Cl)cc2ncn1CC1(O)CCN(c2ccc([N+](=O)[O-])cn2)CC1 [Compound 78],
6.00 to 6.70,CC(C)C(Cc1ccccc1)C(=O)N1CCC(O)(Cn2cnc3cc(Cl)ccc3c2=O)CC1 (centres unmarked) [Compound 91],
< 5.00,O=C(CCc1ccccc1)N1CCC(O)(Cn2cnc3ccc([N+](=O)[O-])cc3c2=O)CC1 [Compound 68],
5.00 to 6.00,O=C(CC(c1ccccc1)c1ccccc1)N1CCC(O)(Cn2cnc3cc(Cl)ccc3c2=O)CC1 [Compound 82],
< 5.00,O=C(C(Cc1ccccc1)c1ccccc1)N1CCC(O)(Cn2cnc3cc(Cl)ccc3c2=O)CC1 (centres unmarked) [Compound 95],
5.00 to 6.00,COC(Cc1ccccc1)C(=O)N1CCC(O)(Cn2cnc3cc(Cl)ccc3c2=O)CC1 (centres unmarked) [Compound 92],
< 5.00,CC(C)(C)C(=O)Nc1ccc2c(=O)n(CC3(O)CCN(C(=O)CCc4ccccc4)CC3)cnc2c1 [Compound 105],
5.00 to 6.00,CCC(Cc1ccccc1)C(=O)N1CCC(O)(Cn2cnc3cc(Cl)ccc3c2=O)CC1 (centres unmarked) [Compound 94],
6.00 to 6.70,O=C(NCCCCC(=O)N1CCC(O)(Cn2cnc3cc(Cl)ccc3c2=O)CC1)c1ccc2c(Cl)c3c(nc2c1)CCCC3 [Compound 98],
< 5.00,O=c1c2ccc(Cl)cc2ncn1CC1(O)CCN(c2ccccc2)CC1 [Compound 70],
6.00 to 6.70,CC(=O)Nc1ccc2c(=O)n(CC3(O)CCN(C(=O)CC(C)c4ccccc4)CC3)cnc2c1 (centres unmarked) [Compound 86],
6.00 to 6.70,C[C@H](CC(=O)N1CCC(O)(Cn2cnc3cc(N)ccc3c2=O)CC1)c1ccccc1 [Compound 101],
< 5.00,CCN(CC(=O)N1CCC(O)(Cn2cnc3cc(Cl)ccc3c2=O)CC1)c1ccccc1 [Compound 80],
< 5.00,CNC(=O)c1ccc2c(Cl)c3c(nc2c1)CCCC3 [Compound 90],
< 5.00,O=c1c2ccc(Cl)cc2ncn1CC1(O)CCN(c2cc([N+](=O)[O-])ccn2)CC1 [Compound 83],
5.00 to 6.00,C[C@H](CC(=O)N1CCC(O)(Cn2cnc3c(N)cccc3c2=O)CC1)c1ccccc1 [Compound 103],
5.00 to 6.00,O=C(NCCCC(=O)N1CCC(O)(Cn2cnc3cc(Cl)ccc3c2=O)CC1)c1ccc2c(Cl)c3c(nc2c1)CCCC3 [Compound 84],
< 5.00,O=C(CC1c2ccccc2-c2ccccc21)N1CCC(O)(Cn2cnc3cc(Cl)ccc3c2=O)CC1 [Compound 88],
< 5.00,O=C([C@H]1C[C@@H]1c1ccccc1)N1CCC(O)(Cn2cnc3cc(Cl)ccc3c2=O)CC1 [Compound 75],
5.00 to 6.00,O=C(N[C@@H](Cc1ccccc1)C(=O)N1CCC(O)(Cn2cnc3cc(Cl)ccc3c2=O)CC1)c1ccc2c(Cl)c3c(nc2c1)CCCC3 [Compound 99],
< 5.00,O=c1c2ccc(Cl)cc2ncn1CC1(O)CCN(c2cccnc2)CC1 [Compound 77],
< 5.00,CC(C)(C)C(=O)N1CCC(O)(Cn2cnc3cc(Cl)ccc3c2=O)CC1 [Compound 76],
< 5.00,O=C(C#Cc1ccccc1)N1CCC(O)(Cn2cnc3cc(Cl)ccc3c2=O)CC1 [Compound 67],

# Reference: patent US11465983B2, “USP7 inhibitors for treating multiple myeloma” (Dana-Farber Cancer Institute, Inc., priority 2017, dated 2022)
